From patent US6919379B2, “Compounds useful in reflux disease” (AstraZeneca AB, priority 2001, dated 2005)

| melting point | SMILES |
| --- | --- |
| 136 to 138 °C | NC[C@@H](F)CS(=O)O |
| 206 to 208 °C | NC[C@H](O)CS(=O)O [Example 1, (2S)-(3-Amino-2-hydroxypropyl)sulphinic acid] |
| 210 °C | NC[C@@H](O)CS(=O)O [Example 2, (2R)-(3-Amino-2-hydroxypropyl)sulphinic acid] |
